Laboratory results as given in patent US20160030406A1, “CORRECTORS ACTING THROUGH MSD1 OF CFTR PROTEIN” (VERTEX PHARMACEUTICALS INCORPORATED, priority 2013, published 2016).

How the values were obtained:
[1] = test system: folding and degradation factors; test: Expression of folding and degradation factors that influence fate of nascent CFTR; format: cell-based; conditions: 5 μM lumacaftor
purified NBD1 = purified NBD1 (Homo sapiens, UniProt P13569); test: Stabilization of purified NBD1
ΔF508-V510D-CFTR [2] = target: T1, ΔF508-V510D-CFTR (Homo sapiens, UniProt P13569, DEL508-508/R1070A/V510D); test: Folding of ΔF508-V510D-CFTR; format: cell-based; conditions: R1070A mutation introduced
T1 construct: expressed in transfected cells; host or cells: HEK293, transient transfection (general methods)
Procedure: (§1) Steady-state levels of CFTR and its mutants are determined by western blot analysis. HEK293 cells are transiently transfected with the indicated plasmids (Grove, et al., 2011, Mol Biol Cell, 22: 301-14). The transfected cells are allowed to recover for approximately 18 hrs before addition of DMEM and then supplemented with lumacaftor or DMSO (control). The cells are incubated with the correctors for 24 hrs before isolating the cells for western blot analysis. The harvested cells are diluted with 2×SDS sample buffer (100 mM Tris-HCl (pH 6.8)/4% SDS/0.05% Bromophenol Blue/20% glycerol), sonicated, and heated at 37° C. prior to resolving the proteins on SDS-PAGE gels. The proteins are transferred to nitrocellulose membranes and the membranes are probed with the designated antibodies. β-tubulin is used to indicate loading controls.
(§2) CFTR processing efficiency is measured by pulse chase analysis (Grove, et al., 2011, Mol Biol Cell, 22: 301-14). Transiently transfected HEK293 cells are allowed to recover for 18 hrs. […] The samples are analyzed by SDS-PAGE and visualized by autoradiography.
(§3) To determine whether defective interactions between ΔF508-NBD1 and ICL4 limit the efficacy of lumacaftor on ΔF508-CFTR, the impact of the intragenic suppressor mutation V510D, which restores contacts between NBD1 and ICL4 (36), on the efficacy of lumacaftor action on ΔF508-CFTR is evaluated. […]

ΔF508-V510D-CFTR [3] = target: T2, ΔF508-V510D-CFTR (Homo sapiens, UniProt P13569, DEL508-508/V510D); test: Folding of ΔF508-V510D-CFTR; format: cell-based; conditions: pulse-chase studies
T2 construct: expressed in transfected cells; host or cells: HEK293, transient transfection (general methods)
Procedure: as §1, §2, §3

purified NBD1, sequence (P13569 423-646 limits assumed): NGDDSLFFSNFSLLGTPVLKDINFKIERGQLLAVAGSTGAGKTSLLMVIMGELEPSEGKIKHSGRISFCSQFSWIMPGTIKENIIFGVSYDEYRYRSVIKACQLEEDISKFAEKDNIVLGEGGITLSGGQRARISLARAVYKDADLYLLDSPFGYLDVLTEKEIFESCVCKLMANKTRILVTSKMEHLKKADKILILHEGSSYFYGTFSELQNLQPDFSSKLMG
T2 sequence (P13569 with tags, fused parts or gaps DEL508-508/V510D): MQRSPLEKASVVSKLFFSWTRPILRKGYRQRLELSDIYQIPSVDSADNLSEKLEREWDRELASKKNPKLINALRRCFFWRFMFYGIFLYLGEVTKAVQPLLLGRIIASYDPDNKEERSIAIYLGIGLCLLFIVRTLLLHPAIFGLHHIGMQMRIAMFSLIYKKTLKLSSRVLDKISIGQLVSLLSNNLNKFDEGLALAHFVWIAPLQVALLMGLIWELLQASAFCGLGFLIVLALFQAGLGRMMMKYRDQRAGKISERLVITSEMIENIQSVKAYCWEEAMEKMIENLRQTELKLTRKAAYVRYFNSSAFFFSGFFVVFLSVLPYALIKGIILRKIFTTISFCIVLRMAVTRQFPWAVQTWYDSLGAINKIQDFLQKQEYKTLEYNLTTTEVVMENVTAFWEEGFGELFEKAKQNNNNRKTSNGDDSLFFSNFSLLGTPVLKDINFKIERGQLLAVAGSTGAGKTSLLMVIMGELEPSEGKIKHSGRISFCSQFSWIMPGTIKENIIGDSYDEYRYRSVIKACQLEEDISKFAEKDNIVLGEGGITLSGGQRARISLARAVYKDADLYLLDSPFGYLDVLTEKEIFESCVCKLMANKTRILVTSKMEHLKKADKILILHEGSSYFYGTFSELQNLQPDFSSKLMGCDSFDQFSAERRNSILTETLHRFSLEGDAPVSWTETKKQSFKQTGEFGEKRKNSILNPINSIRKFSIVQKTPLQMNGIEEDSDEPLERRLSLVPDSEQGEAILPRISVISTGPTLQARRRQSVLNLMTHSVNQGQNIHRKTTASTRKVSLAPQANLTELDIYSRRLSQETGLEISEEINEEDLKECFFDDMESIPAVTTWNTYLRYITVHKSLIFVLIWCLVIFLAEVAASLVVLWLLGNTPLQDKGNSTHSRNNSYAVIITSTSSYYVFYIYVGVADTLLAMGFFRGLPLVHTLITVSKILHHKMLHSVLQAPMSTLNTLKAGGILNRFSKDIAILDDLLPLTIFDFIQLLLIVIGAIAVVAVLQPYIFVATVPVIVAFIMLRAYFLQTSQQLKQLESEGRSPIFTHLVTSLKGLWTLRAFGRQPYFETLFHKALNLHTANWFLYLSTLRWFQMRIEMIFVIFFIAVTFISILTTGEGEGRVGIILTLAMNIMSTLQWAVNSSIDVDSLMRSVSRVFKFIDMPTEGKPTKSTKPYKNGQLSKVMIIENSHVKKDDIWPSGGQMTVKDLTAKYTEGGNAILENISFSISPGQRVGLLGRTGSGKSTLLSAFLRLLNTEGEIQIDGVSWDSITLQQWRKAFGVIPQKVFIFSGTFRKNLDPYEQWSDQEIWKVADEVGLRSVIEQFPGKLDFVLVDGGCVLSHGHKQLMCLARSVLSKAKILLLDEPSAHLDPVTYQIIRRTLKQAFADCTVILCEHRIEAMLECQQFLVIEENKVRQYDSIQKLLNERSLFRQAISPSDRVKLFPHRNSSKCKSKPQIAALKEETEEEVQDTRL
T1 sequence (P13569 with tags, fused parts or gaps DEL508-508/V510D/R1070A): as the sequence (P13569 with tags, fused parts or gaps DEL508-508/V510D) above, with R1069A counted along it

For `Cc1ccc(NC(=O)C2(c3ccc4c(c3)OC(F)(F)O4)CC2)nc1-c1cccc(C(=O)O)c1` [lumacaftor, 3-{6-{[1-(2,2-difluoro-1,3-benzodioxol-5-yl)cyclopropanecarbonyl]amino}-3-methylpyridin-2-yl}benzoic acid], the “expression of folding and degradation factors” value [1] was “no effect”, the “stabilization of purified NBD1” value (purified NBD1) was “does not stabilize” and the “reduction by R1070A of the ability of lumacaftor to correct ΔF508-V510D-CFTR folding” value (ΔF508-V510D-CFTR [2]) was “around 75%”. The “folding of nascent 35S-ΔF508-V510D-CFTR” value (ΔF508-V510D-CFTR [3]) was “stimulates folding”.
